Values of other authors, collected in patent US12655168B2, “Isolation of steviol glycosides” (DSM IP ASSETS B.V., priority 2019, dated 2026).

Assays:
[1] = Type II diabetics
[2] = mildly hypertensive patients
[3] = relative to sucrose
[4] = new hemihydrate crystal form; obtained after heating and cooling a 0.06% reb B solution to room temperature

## C=C1C[C@@]23CC[C@H]4[C@@](C)(CCC[C@@]4(C)C(=O)O[C@@H]4O[C@H](CO)[C@@H](O)[C@H](O)[C@H]4O)[C@@H]2CC[C@]1(O[C@@H]1O[C@H](CO)[C@@H](O)[C@H](O)[C@H]1O[C@@H]1O[C@H](CO)[C@@H](O)[C@H](O)[C@H]1O)C3 [Stevioside]
[1]
  effect on blood glucose levels: reduce blood glucose levels
[2]
  effect on blood pressure: reduce blood pressure

## C=C1C[C@@]23CC[C@H]4[C@@](C)(CCC[C@@]4(C)C(=O)O[C@@H]4O[C@H](CO)[C@@H](O)[C@H](O)[C@H]4O[C@@H]4O[C@H](CO)[C@@H](O)[C@H](O)[C@H]4O)[C@@H]2CC[C@]1(O[C@@H]1O[C@H](CO)[C@@H](O)[C@H](O[C@@H]2O[C@H](CO)[C@@H](O)[C@H](O)[C@H]2O)[C@H]1O[C@@H]1O[C@H](CO)[C@@H](O)[C@H](O)[C@H]1O)C3 [rebaudioside D]
[3]
  times sweeter than sucrose: about 200 times

## rebaudioside B
[4]
  solubility in water: 50 ppm
